Patent US20230136562A1, “SPIROUREA DERIVATIVES” (Idorsia Pharmaceuticals Ltd, priority 2020, published 2023)
Structures can show the parent of a compound that is named as a salt. Where two headings read alike, the source gives them in different places.

Legend:
[1] = system: primary neuronal cultures from embryonic rat brains; assay: Rat oscillation assay (FLIPR, neuronal calcium oscillations); assay type: cell-based
How it was run: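 Cortical neurons from E18 Wistar rat embryos, cultured 8–10 days at high density, loaded with 1 μM Fluo-8 AM; calcium oscillations recorded by FLIPR once per second in Mg-free HBSS with 2 mM CaCl2, 20 mM HEPES, pH 7.4. Two acquisitions ("Acute", 500 sec, compound added at 250 sec; "20 min"), ± Kv7 blocker XE-991.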

DBA/2J mice = assay: Audiogenic seizure-sensitive mouse model of generalized convulsive seizures (AGS); assay type: in vivo; details: challenge 1 h, 90% MC 0.5% + 10% PEG400, read-out: Seizure stage [% vs. vehicle]; for change in vivo at 30 mg/kg: 30 mg/kg po
Experimental: (§1) Formulation and Administration.
(§2) Compounds were formulated in a 10% polyethylene glycol 400 (PEG 400)/90% aqueous solution of 0.5% methylcellulose (MC 0.5%). Firstly drugs are dissolved in PEG 400 and then suspended in MC 0.5% for oral gavage at X mg/5 mL/kg (X see table).
Audiogenic Seizure-Sensitive Mouse Model of Generalized Convulsive Seizures
1. Procedure: Following two days of acclimatisation, auditory seizures are induced in male juvenile DBA/2J mice (22-24 days old). Each mouse is placed individually in the exposure chamber, an hemispheric acrylic glass dome (diameter: 50 cm) within a sound-attenuated box. The sound-attenuated box is equipped with two house lights and a camera system (Fire-I from Unibrain) in order to observe and record the behavioral seizure response. After 60 seconds of habituation, the stimulus, a mixed frequency tone of 15-20 kHz at 110 dB (SASLab Lite, Avisoft Bioacoustics), is played from a speaker that is placed on the top center of the dome. […] Seizures are classified as following: stage 0, normal behavior; stage 1, wild running; stage 2, generalized clonus; stage 3, tonic extension of the hind limbs.
2. Compounds testing: Acute compound effects on audiogenic generalized convulsive seizures are evaluated in independent groups of 8-10 mice randomly assigned. Following oral administration of compound or vehicle, the maximum seizure stage during sound exposure is assessed. Compounds are given 1 hour before exposure to the stimulus. Each mouse is exposed to the auditory stimulus only once and euthanized afterwards by CO2 inhalation.

Wistar rats = assay: Amygdala-kindling rat model; assay type: in vivo; details: 1 mg/kg po, time of challenge 30 min, HCl salt, formulation 90% MC 0.5% + 10% PEG400
Experimental: as §1, §2
Amygdala-Kindling Rat Model:
1. Procedure: Adult male Wistar rats (Harlan Laboratories, Netherlands, or Charles Rivers, Germany; body weight 300-350 g) were stereotaxically implanted with twisted bipolar plastic-coated stainless steel electrode (MS333-2-BIU 10 mm, Plastics One) into the right basolateral amygdala under isoflurane anesthesia. To place the electrode, trepanations were made in the skull and the electrode was lowered into the right basolateral amygdala (from bregma: anteriorposterior (AP): −2.5 mm, medio-lateral (ML): −3.5 mm, dorso-ventral (DV): −8.6 mm; α=10°) and secured to the skull with screws and dental acrylate. After one week of recovery, they were handled daily and habituated over one week to the kindling set-up. Kindling procedure: For a kindling session each rat was placed individually into a smooth acrylic plastic, round-bottomed bowl (Ø 36 cm, height 36 cm, BASi movement-responsive caging system) and its intracranial implanted electrode was connected to the stimulator (STG4008, Multichannel Systems GmbH) and the recording devices (PowerLab 8/35, ADInstruments Ltd) via a cable (335-340/3 (C), Plastics One). For the kindling procedure, each rat was exposed once daily to an electrical stimulation and the behavioral symptoms of the evoked seizure were observed and classified according to the modified Racine scale (stage 0, arrest, wet dog shakes, normal behaviour; stage 1, facial twitches: nose, lips, eyes; stage 2, chewing, head nodding; stage 3, forelimb clonus; stage 4, rearing, falling on forelimbs; stage 5, rearing, falling on side or back, rolling). The electrical stimulus consists of a 1s-train of 50 Hz square-wave biphasic pulses of 1-ms duration at an intensity of 400 μA (suprathreshold intensity). […] Data Scoring and analysis. The duration of electroencephalographic seizures (afterdischarge, AD) was recorded using LabChart7 Pro software (ADlnstruments Ltd). Simultaneously, videos were recorded to evaluate seizure stage (SS).
2. Compound testing: Acute drug effects were evaluated in groups of 6-8 fully kindled rats in a randomized cross-over design with 48 h between drug and vehicle applications. Following oral administration of drug or vehicle, drug testing included determination of the afterdischarge threshold (the minimal stimulation intensity necessary to evoke an afterdischarge (electroencephalographically measured neuronal hyper-synchronous activity with an amplitude 2-times higher than baseline amplitude and a frequency of ≥1 Hz) of at least 3 sec duration) and monitoring electroencephalographic and behavioral correlates of the evoked seizure at ADT (afterdischarge threshold), including AD duration and SS, by a experimenter blind to treatment assignment.

[2] = Rattus norvegicus, 20 min, AUC of fluorescence measured 20 min after compound addition, read-out: FLIPR: IC50 [nM] 20 min
[3] = Rattus norvegicus, Acute phase, ratio of AUC fluorescence before and after compound addition, read-out: FLIPR: IC50 [nM] acute

| SMILES | IC50 [1, 2] | IC50 [1, 3] | change in vivo at 30 mg/kg (DBA/2J mice) | also measured |
| --- | --- | --- | --- | --- |
| O=C(NCc1cccc(OC(F)F)c1)NC1CC2(CC2)C1 [Example 155, 1-(3-Difluoromethoxy-benzyl)-3-spiro[2.3]hex-5-yl-urea] | 163 nM | 151 nM | -100% |  |
| C[C@H](NC(=O)NC1CC2(CCC2)C1)c1ccnc(OC(F)F)c1 (single isomer, unassigned) [Example 168] | 3 nM | 3.7 nM |  | AD duration [% vs veh] (Wistar rats): −84 % vs veh; Seizure stage [% vs veh] (Wistar rats): −58 % vs veh |
| O=C(NCc1ccnc(OCC(F)(F)F)c1)NC1CC2(CC2)C1 [Example 159, 1-Spiro[2.3]hex-5-yl-3-[2-(2,2,2-trifluoro-ethoxy)-pyridin-4-ylmethyl]-urea] | 47 nM | 26 nM | -100% |  |
| C[C@H](NC(=O)NC1CC2(CCC2)C1)c1cc(OCC(F)(F)F)ncn1 (single isomer, unassigned) [Example 182] | 13 nM | 11 nM |  | change in vivo at 5 mg/kg (DBA/2J mice; 5 mg/kg po): -100% |
| COCC(Oc1cc(CNC(=O)NC2CC3(CCC3)C2)ccn1)C(F)(F)F (single isomer, unassigned) [Example 172, 1-Spiro[3.3]hept-2-yl-3-[2-(2,2,2-trifluoro-1-methoxymethyl-ethoxy)-pyridin-4-ylmethyl]-urea] |  |  | -81% | IC50 ([1]; AUC of fluorescence measured 20 min after compound addition, read-out: FLIPR: IC50 [nM] 20 min): 37 nM; IC50 ([1]; Acute phase, ratio of AUC fluorescence before and after compound addition, read-out: FLIPR: IC50 [nM] acute): 38 nM |
| CC(NC(=O)NC1CC2(CCC2)C1)c1ccnc(OC(F)F)c1 (racemic) [Example 100 (HCl salt), (±)-1-[1-(2-Difluoromethoxy-pyridin-4-yl)-ethyl]-3-spiro[3.3]hept-2-yl-urea] |  |  |  | change in vivo at 33 mg/kg (DBA/2J mice; 33 mg/kg po): -71% |
| O=C(NCc1ccnc(OCC(F)(F)F)c1)NC1CC2(C1)CC(F)(F)C2 [Example 160, 1-(6,6-Difluoro-spiro[3.3]hept-2-yl)-3-[2-(2,2,2-trifluoro-ethoxy)-pyridin-4-ylmethyl]-urea] | 253 nM | 83 nM | -100% |  |
